Data set [1] deals with HBV. The data set can be described thus: Anti-HBV activity in HepG2.2.15 cells (HBV DNA in culture medium by qPCR). The following applies: Hepatitis B virus, 144 h, 6 days of compound treatment. Format: cell-based. As to the method: (§1) HepG2.2.15 (the HepG2.2.15 cell line can be produced by transfection of the HepG2 cell line as described in Sells, Chen, and Acs 1987 (Proc. Natl. Acad. Sci. USA 84:1005-1009), and the HepG2 cell line is available from ATCC® under number HB-8065™).
(§2) HepG2.2.15 cells were plated into 96-well plate in 2% FBS culture medium at the density of 40,000 cells/well and 5,000 cells/well for HBV inhibitory activity and cytotoxicity determination, respectively. After incubation at 37° C., 5% CO2 overnight, cells were treated with medium containing compounds for 6 days with medium and compounds refreshed after 3 days of treatment. Each compound was tested in a 1:3 serial dilutions at 8 different concentrations in triplicate. The highest concentration of the compounds was 10 uM or 1 uM for anti-HBV activity assay and 100 uM for cytotoxicity determination.
The change of HBV DNA level induced by the compounds was assessed by quantitative real-time polymerase chain reaction (qPCR). Briefly, the HBV DNA in the culture medium was extracted using QIAamp 96 DNA Blood Kit according to the manual and then quantified by real-time PCR assay using the primers and probe in the table 1 below.
(§3) EC50 and CC50 values are calculated by the […] PRISM software.

Data set [2] in a line: Cytotoxicity determination in HepG2.2.15 cells (CCK-8 cell viability). The following applies: human, 6 days of compound treatment, CCK-8 assay. Format: cell-based. How it is done:
as §1, §2
Cell viability was determined by CCK-8 assay. After 6 days of compounds treatment, 20 μl CCK-8 reagents were added to each well of cytotoxicity assay plates. Cell plates were incubated at 37° C., 5% CO2 for 2.5 h. The absorbance at 450 nm wavelength and the absorbance at 630 nm wavelength as reference was measured.
as §3

Molecule `COC(=O)C1=C(CN2CCN3C(=O)N(CC(C)(C)C(=O)O)C[C@]3(C)C2)NC(c2nccs2)=N[C@H]1c1ccc(F)cc1Br` (relative stereo) [Compound 3A, 3-((S*)-7-(((R*)-6-(2-Bromo-4-fluorophenyl)-5-(methoxycarbonyl)-2-(thiazol-2-yl)-3,6-dihydropyrimidin-4-yl)methyl)-8a-methyl-3-oxohexahydroimidazo[1,5-a]pyrazin-2(3H)-yl)-2,2-dimethylpropanoic Acid] showed a concentration giving a half-maximal response (EC50) in data set [1] of 0.038 µM. Also, in data set [2], the half-maximal cytotoxic concentration (CC50) at 6 days turned out to be 26.7 µM.

Molecule `CCOC(=O)C1=C(CN2CCN3C(=O)N([C@H]4CC[C@H](C(=O)O)CC4)C[C@]3(C)C2)NC(c2nccs2)=N[C@H]1c1cccc(F)c1C` (relative stereo) [Compound 5A, (trans)-4-((S)-7-(((S*)-5-(Ethoxycarbonyl)-6-(3-fluoro-2-methylphenyl)-2-(thiazol-2-yl)-3,6-dihydropyrimidin-4-yl)methyl)-8a-methyl-3-oxohexahydroimidazo[1,5-a]pyrazin-2(3H)-yl)cyclohexanecarboxylic Acid] gave an EC50 in data set [1] of 0.034 µM. In addition, in data set [2], the CC50 at 6 days is 9.2 µM.

`CCOC(=O)C1=C(CN2CCN3C(=O)N(CC(C)(C)C(=O)O)CC3(C)C2)NC(c2nccs2)=N[C@H]1c1cccc(F)c1C` (single isomer, unassigned) [Compound 1B] registered an EC50 in data set [1] of 0.009 µM. Also, the midpoint of cytotoxicity in data set [2], the CC50 at 6 days, lay at 24.3 µM.

In turn, `CCOC(=O)C1=C(CN2CCN3C(=O)N(CC(C)(C)C(=O)O)C[C@]3(C)C2)NC(c2nccs2)=N[C@H]1c1cccc(F)c1Cl` (single isomer, unassigned) [Compound 2A, (S*)-3-(-7-(((R*)-6-(2-Chloro-3-fluorophenyl)-5-(ethoxycarbonyl)-2-(thiazol-2-yl)-3,6-dihydropyrimidin-4-yl)methyl)-8a-methyl-3-oxohexahydroimidazo[1,5-a]pyrazin-2(3H)-yl)-2,2-dimethylpropanoic Acid] registered a half-maximal effective concentration (EC50) in data set [1] of 0.016 µM. In addition, the CC50 at 6 days in data set [2] was 19.4 µM.

`CCOC(=O)C1=C(CN2CCN3C(=O)N(CC(C)(C)C(=O)O)CC3(CC)C2)NC(c2nccs2)=N[C@H]1c1cccc(F)c1C` (single isomer, unassigned) [Compound 4B, 3-((S*)-7-(((S)-5-(Ethoxycarbonyl)-6-(3-fluoro-2-methylphenyl)-2-(thiazol-2-yl)-3,6-dihydropyrimidin-4-yl)methyl)-8a-ethyl-3-oxohexahydroimidazo[1,5-a]pyrazin-2(3H)-yl)-2,2-dimethylpropanoic Acid] came in with a half-maximal effective concentration (EC50) in data set [1] of 0.165 µM. The 50% cytotoxic concentration (CC50) at 6 days in data set [2] is 18.5 µM.

In the case of `CCOC(=O)C1=C(CN2CCN3C(=S)N(CC(C)(C)C(=O)O)CC3(C)C2)NC(c2nccs2)=N[C@H]1c1cccc(F)c1C` (single isomer, unassigned) [Compound 6A, 3-((R*)-7-(((S)-5-(Ethoxycarbonyl)-6-(3-fluoro-2-methylphenyl)-2-(thiazol-2-yl)-3,6-dihydropyrimidin-4-yl)methyl)-8a-methyl-3-thioxohexahydroimidazo[1,5-a]pyrazin-2(3H)-yl)-2,2-dimethylpropanoic Acid], the concentration for a half-maximal effect (EC50) in data set [1] came out at 0.012 µM. The molecule also yielded a CC50 at 6 days in data set [2] of 13 µM.

The record behind these values is patent publication US20220048919A1, “HETEROARYLDIHYDROPYRIMIDINE DERIVATIVES AND METHODS OF TREATING HEPATITIS B INFECTIONS” (Janssen Phrmaceutica NV, priority 2018, published 2022).
